One assay concerns PED coronavirus. The note with it: component alone; statement without data; cited from earlier work.
The next assay concerns TNF-α. Nature of the assay: Inhibitory effect on TNF-α in PED coronavirus-infected Vero cells. The note with it: 10 μM, vs virus-infected group. In kind it is cell-based. Here is the method: To investigate the inhibitory effect of the complex on TNF-α, which is a pro-inflammatory cytokine involved in promoting inflammation, virus infection was performed in the same manner as in Example 2-1, followed by treatment with the complex.

In another assay the test system is IL-8. The assay can be described thus: Inhibitory effect on IL-8 in PED coronavirus-infected Vero cells. In kind it is cell-based. To be noted: 10 μM, vs virus-infected group. Here is the method: To investigate the inhibitory effect of the complex on IL-8, which is a pro-inflammatory cytokine involved in promoting inflammation, virus infection was performed in the same manner as in Example 2-1, followed by treatment with the complex.

Assay [1] has as its system nucleoprotein (N protein) of the PED coronavirus. To be noted: 10 μM, vs virus-infected group.
Procedure: To investigate the target protein expression inhibitory effect of the complex on the nucleoprotein (N protein) of the PED coronavirus, Vero cells were infected with 0.001 MOI of PED coronavirus for 1 hour.
In a further assay the test system is IL-6. The assay can be described thus: Inhibitory effect on IL-6 in PED coronavirus-infected Vero cells. Format: cell-based. The note with it: 10 μM, vs virus-infected group. On the procedure:
To investigate the inhibitory effect of the complex on IL-6, which is a pro-inflammatory cytokine involved in promoting inflammation, virus infection was performed in the same manner as in Example 2-1, followed by treatment with the complex.

For the compound `COc1cc(/C=C/C(=O)/C=C(O)/C=C/c2ccc(O)c(OC)c2)ccc1O` [curcumin], in the assay on PED coronavirus, the “inhibitory effect against PED coronavirus” value is “no inhibitory effect”.
As for `O=c1cnn([C@@H]2O[C@H](CO)[C@@H](O)[C@H]2O)c(=O)[nH]1` [6-azauridine], the “inhibitory effect on TNF-α” value in the assay on TNF-α is recorded as 3.8 fold. Besides, in the assay on IL-8, the “inhibitory effect on IL-8” value came out at 25.4 fold. Besides, the “nucleoprotein synthesis inhibition (inhibitory effect)” value in assay [1] was determined as 6.8 fold. Moreover, the “inhibitory effect on IL-6” value in the assay with IL-6 is 5.8 fold.

The values are drawn from patent publication US20230000940A1, “Composition for prevention or treatment of Porcine epidemic diarrhea virus infection comprising curcuminoid and licorice extracts or fraction thereof” (KOREA RESEARCH INSTITUTE OF BIOSCIENCE AND BIOTECHNOLOGY, priority 2019, published 2023).
